According to patent US20250230193A1, “CYCLIC COMPOUND HAVING SELECTIVE KRAS INHIBITORY EFFECT ON HRAS AND NRAS” (CHUGAI SEIYAKU KABUSHIKI KAISHA, priority 2022, published 2025):

How the values were obtained:
[1] = target: GDP-bound NRAS wild-type protein (Homo sapiens, UniProt P01111); test: Binding to NRAS by surface plasmon resonance (SPR), Single Cycle Kinetics; conditions: SPR; KD ratio class
[2] = target: GDP-bound HRAS wild-type protein (Homo sapiens, UniProt P01112); test: Binding to HRAS by surface plasmon resonance (SPR), Single Cycle Kinetics; conditions: SPR; KD ratio class
GDP-bound HRAS wild-type protein, sequence (P01112 whole entry): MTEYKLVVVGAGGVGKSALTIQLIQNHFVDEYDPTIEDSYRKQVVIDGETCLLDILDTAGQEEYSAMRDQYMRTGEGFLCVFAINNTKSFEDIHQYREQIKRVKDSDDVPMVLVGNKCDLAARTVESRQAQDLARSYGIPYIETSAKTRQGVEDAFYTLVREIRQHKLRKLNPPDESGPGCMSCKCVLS

[3] = tested on: human lung cancer strain NCI-H441; test: cells; conditions: NCI-H441, 96 h, read-out: NCI-H441 IC50 (nM)

GDP-bound NRAS wild-type protein, sequence (P01111 whole entry): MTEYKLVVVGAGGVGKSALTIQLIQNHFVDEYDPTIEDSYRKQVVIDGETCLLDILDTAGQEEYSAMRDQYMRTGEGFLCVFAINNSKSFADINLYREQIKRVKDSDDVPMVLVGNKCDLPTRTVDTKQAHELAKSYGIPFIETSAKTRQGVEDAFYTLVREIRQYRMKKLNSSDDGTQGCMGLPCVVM

Row | SMILES | IC50 [3] | NRAS/KRAS (ratio of KD value for GDP-bound NRAS wild-type protein to KD value for KRAS) [1] | HRAS/KRAS (ratio of KD value for GDP-bound HRAS wild-type protein to KD value for KRAS) [2]
1 | CCO[C@@H]1C[C@H]2C(=O)NC3(CCC3)C(=O)N(C)[C@@H](C3CCCC3)C(=O)N(C)[C@H](C(=O)N(C)C)CC(=O)N(C)[C@@H](CC3CC3)C(=O)N[C@@H]([C@@H](C)CC)C(=O)N(C)CC(=O)N(C)[C@H]3C/C=C\CCN(C3=O)[C@@H](Cc3ccc(C(F)(F)F)cc3)C(=O)N(C)CC(=O)N[C@@H](CCc3ccc4sccc4c3)C(=O)N2C1 [PP1260] | 60.4 nM | A (a compound having 10 or more and less than 20 is denoted as A) | A (a compound having 10 or more and less than 20 is denoted as A)
2 | CCO[C@@H]1C[C@H]2C(=O)NC3(CCC3)C(=O)N(C)[C@@H](C3CCCC3)C(=O)N(C)[C@H](C(=O)N(C)C)CC(=O)N(C)[C@@H](CC3CCCC3)C(=O)N[C@@H]([C@@H](C)CC)C(=O)N(C)CC(=O)N(C)[C@H]3C/C=C\CCN(C3=O)[C@@H](Cc3ccc(C(F)(F)F)cc3)C(=O)N(C)CC(=O)N[C@@H](CCc3cc(F)c(Cl)c(F)c3)C(=O)N2C1 [PP1264] | 15.9 nM | A (a compound having 10 or more and less than 20 is denoted as A) | B (a compound having 3 or more and less than 10 is denoted as B)
3 | CCO[C@@H]1C[C@H]2C(=O)NC3(CCC3)C(=O)N(C)[C@@H](C3CCCC3)C(=O)N(C)[C@H](C(=O)N(C)C)CC(=O)N(C)[C@@H](CC)C(=O)N[C@@H]([C@@H](C)CC)C(=O)N(C)CC(=O)N(C)[C@H]3C/C=C\CCN(C3=O)[C@@H](Cc3ccc(C(F)(F)F)cc3)C(=O)N(C)CC(=O)N[C@@H](CCc3ccc(C(F)(F)F)c(C)c3)C(=O)N2C1 [PP1265] | 14.1 nM | A (a compound having 10 or more and less than 20 is denoted as A) | B (a compound having 3 or more and less than 10 is denoted as B)
4 | CCO[C@@H]1C[C@H]2C(=O)NC3(CCC3)C(=O)N(C)[C@@H](C3CCCC3)C(=O)N(C)[C@H](C(=O)N(C)C)CC(=O)N(C)[C@@H](CC)C(=O)N[C@@H](C(C)C)C(=O)N(C)CC(=O)N(C)[C@H]3C/C=C\CCN(C3=O)[C@@H](Cc3ccc(C(F)(F)F)cc3)C(=O)N(C)CC(=O)N[C@@H](CCc3cc(F)c(C(F)(F)F)c(F)c3)C(=O)N2C1 [PP1270] | 53.5 nM | A (a compound having 10 or more and less than 20 is denoted as A) | B (a compound having 3 or more and less than 10 is denoted as B)

Now from value to compound, other results behind:

Row | IC50 [3] | SMILES | NRAS/KRAS (ratio of KD value for GDP-bound NRAS wild-type protein to KD value for KRAS) [1] | HRAS/KRAS (ratio of KD value for GDP-bound HRAS wild-type protein to KD value for KRAS) [2]
5 | 56.7 nM | CCO[C@@H]1C[C@H]2C(=O)NC3(CCC3)C(=O)N(C)[C@@H](C3CCCC3)C(=O)N(C)[C@H](C(=O)N(C)C)CC(=O)N(C)[C@@H](CC)C(=O)N[C@@H]([C@@H](C)CC)C(=O)N(C)CC(=O)N(C)[C@H]3C/C=C\CCN(C3=O)[C@@H](Cc3ccc(C(F)(F)F)cc3)C(=O)N(C)CC(=O)N[C@@H](CCc3cc(F)c(Cl)c(F)c3)C(=O)N2C1 [PP1262] | A (a compound having 10 or more and less than 20 is denoted as A) | B (a compound having 3 or more and less than 10 is denoted as B)
6 | 18.9 nM | CCO[C@@H]1C[C@H]2C(=O)NC3(CCC3)C(=O)N(C)[C@@H](C3CCCC3)C(=O)N(C)[C@H](C(=O)N(C)C)CC(=O)N(C)[C@@H](CC(C)C)C(=O)N[C@@H]([C@@H](C)CC)C(=O)N(C)CC(=O)N(C)[C@H]3C/C=C\CCN(C3=O)[C@@H](Cc3ccc(C(F)(F)F)cc3)C(=O)N(C)CC(=O)N[C@@H](CCc3cc(F)c(Cl)c(F)c3)C(=O)N2C1 [PP1263] | A (a compound having 10 or more and less than 20 is denoted as A) | A (a compound having 10 or more and less than 20 is denoted as A)
